Measured values published in patent US7208495B2, “Benzo-fused 5-membered hetrocycle compounds, process for preparation of the same, and use thereof” (Takeda Pharmaceutical Company Limited, priority 2001, dated 2007).

How the values were obtained:
[1] = system: human neuroblastoma SK-N-SH cells; assay: Cytoprotection activity against PI-3 kinase inhibitor LY-294002 in human neuroblastoma SK-N-SH cells; assay type: cell-based; conditions: test compound 1.0 μM with LY-294002 30 μM, Alamarblue reduction one day after start, (A−B)/(C−B)×100
Protocol: Cytoprotection activity against a PI-3 kinase inhibitor LY-294002 in human neuroblastoma SK-N-SH cells.
Human neuroblastoma SK-N-SH cells were purchased from American Type Cell Culture (ATCC). DMEM/F-12 culture medium and potassium/magnesium-free phosphate buffer saline (PBS(−)) were purchased from Nikken Biomedical Co., Ltd., N2 additives and EDTA solution were purchased from GIBCO BRL Company, fetal bovine serum (FCS) and a mixed solution of penicillin (5000 U/ml) and streptomycin (5 mg/ml) were purchased from BioWhittaker Inc., Alamarblue™ reagent was purchased from Wako Pure Chemical Industries Ltd., culture flasks were purchased from Falcon Company, collagen-coated 96-well multi-plates were purchased from Iwaki Glass Co., Ltd., and LY-294002 was purchased from Alexis Biochemicals, respectively. As for other reagents, commercially available guaranteed reagents were used.
A DMEM/F-12 culture medium which contains 5% FCS, 0.5% N2, 10 mM HEPES, and a 1% mixed solution of penicillin (5000 U/ml) and streptomycin (5 mg/ml) was used to subculture SK-N-SH cells in a carbon dioxide incubator under a mixed gas atmosphere consisting of 10% carbon dioxide/90% air. After being cultivated to a sub-confluent stage, the cells were detached with a PBS(−) solution containing 2.5 mM EDTA and seeded onto collagen-coated 96-well multi-plates in the proportion of 10^4/100 μL well. After cultivation for 24 hours, the cultured cells were used in a cytotoxic test.
[…] of the culture medium of the SK-N-SH cells that were cultured as described above on the collagen-coated 96-well multi-plates was removed, and 40 μL each of LY-294002 having a final concentration of 30 μM and a test compound having a final concentration that was adjusted to be 1.0 μM were simultaneously added to initiate the cytotoxicity test. Note that each test compound used was diluted to a concentration of 10 mM with dimethyl sulfoxide, and the LY-294002 used was diluted to a concentration of 100 mM with dimethyl sulfoxide.
The survival activity of neural cells that were still living one day after the initiation of the cytotoxicity test was estimated by the reductive activity of Alamarblue™ reagent as an index. 20 μL of the culture medium was removed, 20 μL of Alamarblue™ reagent was added, and the amount of Alamarblue™ reagent reduced for 4 hours incubation was calorimetrically measured with a plate reader (WAKO SPECTRAMAX 250 Microplate Reader) (measurement wave length 570 nm, reference wave length 600 nm).
Cytoprotection activity was calculated by means of the following equation. Cytoprotection activity a test compound=(A−B)/(C−B)×100 (%) • A: The survival activity of a group consisting of a test compound and LY-294002 • B: The survival activity of a group consisting of LY-294002 • C: The survival activity of a control group (Results)
At least 4 wells for every 1 dose of a test compound was used to determine the cytoprotection activity of a test compound.

mixed rat glia culture = assay: Neurogenesis enhancing activity in mixed rat glia culture (β III-tubulin positive cell area); assay type: cell-based; conditions: compound 1 μM; serum-free medium, five days differentiation; β III-tubulin positive cell area by image analysis versus control without compound
Description: Neurogenesis Enhancing Activity in Mixed Rat Glia Culture
Neonatal of SD rats were purchased from Japan Charles River Co, Ltd. A […] nylon cell strainer was purchased from Beckton-Dickinson. DMEM/F12 culture medium, antibiotic, and N2 additive were purchased from Life Technology Corp. Anti β III-tubulin antibody was purchased from Sigma Corp. DAKO EnVision+/HRP kit was purchased from Dako Japan Corp. As for other reagents, commercially available guaranteed reagents were used.
Rat mixed glia culture was prepared from the cerebrums of 2 day old neonatal SD rat. The neonates were anaesthetised with ice cooling, were decapitated, and their brains were quickly removed. The meninges were carefully removed, and the cerebral cortex was separated therefrom. The cerebral cortex was passed through 40 micron nylon mesh, and it was physically dissociated. Cell suspension was then layered in a cell dispersion liquid on serum, and the cells were fractionated by non-continuous density gradient centrifugation. The precipitate was washed twice with growth culture medium (10% FBS and antibiotic. added to DMEM/F12), and it was dispersed. Mixed glia culture was seeded and inoculated onto a collagen coated 96 well multiplate with 1×10^5 cells per well, and was cultured for five days.
After culturing for five days, mixed glia culture was used in a differentiation assay. Growth culture medium was substituted with a serum-free medium (N2 supplememt and antibiotic added to DMEM/F12), and test compound was added simultaneously. After differentiation for five days, culture was fixed with 4% paraformaldehyde, and was immunostained with the mouse anti β III-tubulin monoclonal antibody and the DAKO EnVison+/HRP kit.
β III-tubulin positive cell area were quantified by image analysis, and was compared to when compound (I) was added (1 μM) and when it was not added (control).

SMILES | Cell protection activity (%) [1] [%] | Differentiation/nacent promotion activity (%/control) (mixed rat glia culture)
COc1ccc(C2CCN(c3c(C)c(C)c4c(c3C)[C@@H](c3ccc(C)cc3)C(C)(C)O4)CC2)cc1OC [Example 32, (3R)-4-(3,4-dimethoxyphenyl)-1-(2,2,4,6,7-pentamethyl-3-(4-methylphenyl)-2,3-dihydro-1-benzofuran-5-yl)piperidine] | 35.6 | 371
COc1ccc(N2CCN(c3c(C)c(C)c4c(c3C)C(O)(c3ccc(C)cc3)C(C)(C)O4)CC2)cc1 (stereo not shown) [Example 33, 1-(3-hydroxy-2,2,4,6,7-pentamethyl-3-(4-methylphenyl)-2,3-dihydro-1-benzofuran-5-yl)-4-(4-methoxyphenyl)piperazine] | 24.9 | 448
COc1ccc(N2CCN(c3c(C)c(C)c4c(c3C)C(c3ccc(C)cc3)C(C)(C)O4)CC2)cc1 (stereo not shown) [Example 46, 1-(2,2,4,6,7-pentamethyl-3-(4-methylphenyl)-2,3-dihydro-1-benzofuran-5-yl)-4-(4-methoxyphenyl)piperazine] | 39.5 | 842
COc1ccc(N2CCN(c3c(C)c(C)c4c(c3C)C(Nc3ccccc3)C(C)(C)O4)CC2)cc1 (stereo not shown) [Example 58, N-phenyl-5-(4-(4-methoxyphenyl)piperazin-1-yl)-2,2,4,6,7-pentamethyl-2,3-dihydro-1-benzofuran-3-amine] | 39.2 | –
COc1ccc(N2CCN(c3c(C)c(C)c4c(c3C)C(N3CCCCC3)C(C)(C)O4)CC2)cc1 (stereo not shown) [Example 59, 4-(4-methoxyphenyl)-1-(2,2,4,6,7-pentamethyl-3-piperidino-2,3-dihydro-1-benzofuran-5-yl)piperazine] | 23.9 | –
COc1ccc(C2CCN(c3c(C)c(C)c4c(c3C)C(c3ccc(C)cc3)C(C)(C)O4)CC2)cc1OC (stereo not shown) [Example 79, 4-(3,4-dimethoxyphenyl)-1-(3-(4-methylphenyl)-2,2,4,6,7-pentamethyl-2,3-dihydro-1-benzofuran-5-yl)piperidine] | 31.3 | –
COc1ccc(C2CCN(c3c(C)c(C)c4c(c3C)C(N3CCc5ccccc5CC3)C(C)(C)O4)CC2)cc1OC (stereo not shown) [Example 92, 3-(5-(4-[3,4-dimethoxyphenyl]piperidino)-2,2,4,6,7-pentamethyl-2,3-dihydro-1-benzofuran-3-yl)-2,3,4,5-tetrahydro-1H-3-benzoazepin] | 29.6 | –
